{
  "source": "patent US20060037085A1",
  "about": "“Animal model for fetal alcohol syndrome and methods of treatment” (priority 2004, published 2006)",
  "key": {"[1]": {"tested_on": "Pax6, Otx2, Sox2, Sox3, NCAM, Vent1", "test": "RT-PCR of neural markers (animal caps or embryos)", "assay_type": "cell-based, Xenopus laevis", "details": "animal caps", "excerpt": "RT-PCR Animal caps were dissected from embryos at stage 8.5 and cultured in 67% Leibovitz's L-15 medium, pH 7.5 in the presence or absence of varied concentration of alcohol until stage 22. Total RNA was extracted from cultured animal caps with Trizol reagent (Invitrogen). Primer sets and PCR conditions for NCAM and Pax6 have been described in our previous reports (Peng, Neurobiol. Dis., 2004; Peng, J. Mol. Biol., 2004). PCR products were subject to electrophoresis on TBE gel and visualized by ethidium bromide staining.\nAnimal cap explant assay. […] Total RNA was extracted from animal caps or whole embryos using TRIZOL reagent (Invitrogen). The total RNA was reverse transcribed using the Superscript system (Invitrogen), and the first strand cDNA of the target gene amplified by PCR.\nThe Xenopus animal cap is composed of pluripotent cells that can be induced to form neural, mesodermal, or epidermal tissue, and is a useful tissue to assess the activity of various factors on neural development. Animal caps were treated with varied concentrations of alcohol as indicated."}, "[2]": {"details": "0.5% alcohol stage 13 to 22, uninjected"}, "[3]": {"details": "0.5% alcohol, pCMS vector-injected embryos"}},
  "note": "Where two headings read alike, the source gives them in different places.",
  "data": [
    {"smiles": "CCO", "note": "[Ethanol, ethanol]", "values": [
      {"measurement": "Body length (% no alcohol control)", "setting": "Xenopus laevis embryos; [2]", "value": "87 ± 2.7", "unit": "% no alcohol control"},
      {"measurement": "Number of embryos in gut developmental stage 43", "setting": "Xenopus laevis embryos; [2]", "value": 8},
      {"measurement": "Number of embryos in gut developmental stage 44", "setting": "Xenopus laevis embryos; [2]", "value": 7},
      {"measurement": "Number of embryos in gut developmental stage 45", "setting": "Xenopus laevis embryos; [2]", "value": 2},
      {"measurement": "Number of embryos in gut developmental stage 46", "setting": "Xenopus laevis embryos; [2]", "value": 0},
      {"measurement": "Number of embryos in gut developmental stage 42", "setting": "Xenopus laevis embryos; 0.5% alcohol stage 13 to 22, uninjected, scored when controls reached stages 45-46", "value": 3},
      {"measurement": "Body length (% no alcohol control)", "setting": "Xenopus laevis embryos; [3]", "value": "85 ± 3.1", "unit": "% no alcohol control"},
      {"measurement": "Number of embryos in gut developmental stage 42", "setting": "Xenopus laevis embryos; [3]", "value": 3},
      {"measurement": "Number of embryos in gut developmental stage 43", "setting": "Xenopus laevis embryos; [3]", "value": 7},
      {"measurement": "Number of embryos in gut developmental stage 44", "setting": "Xenopus laevis embryos; [3]", "value": 9},
      {"measurement": "Number of embryos in gut developmental stage 45", "setting": "Xenopus laevis embryos; [3]", "value": 1},
      {"measurement": "Number of embryos in gut developmental stage 46", "setting": "Xenopus laevis embryos; [3]", "value": 0},
      {"measurement": "outcome of sustained alcohol exposure", "setting": "Xenopus laevis embryos; sustained exposure of alcohol from stage 13", "value": "caused the death of tadpoles at around stages 45-50"},
      {"measurement": "gut maturation (looping pattern of the tadpole gut)", "setting": "Xenopus laevis embryos; transient 0.5% alcohol exposure between stages 13-22", "value": "significant delay in gut maturation"},
      {"measurement": "gut morphology, alcohol-treated vs control groups", "setting": "Xenopus laevis embryos; transient alcohol exposure, gut examined at stage 60", "value": "no difference"},
      {"measurement": "Otx2, Sox2, and Sox3 expression", "setting": "[1]; alcohol 0.1% to 0.6%", "value": "less sensitive to alcohol"},
      {"measurement": "expression of the general ventral marker Vent1", "setting": "[1]; alcohol", "value": "not seriously affected"}
    ]}
  ]
}
